{"source": "patent US11311522B1", "about": "(Cavion, Inc., priority 2018, dated 2022)", "key": {"[1]": {"assay": "MR2 capsules fed versus fasted PK", "assay_type": "in vivo", "conditions": "human, plasma, oral, 8 mg, single dose (1×8 mg) of MR2 CX-8998", "excerpt": "Subjects will be screened for study eligibility within 28 days before administration of the first dose of study drug. Subjects who meet the study eligibility criteria will be admitted to the clinical research unit in the afternoon of the day before administration of the first dose of study drug (Period 1/Day −1)."}, "[2]": {"target": "cannabinoid 2 receptor (CB2) (Homo sapiens, UniProt P34972)", "sequence (P34972 whole entry, species assumed)": "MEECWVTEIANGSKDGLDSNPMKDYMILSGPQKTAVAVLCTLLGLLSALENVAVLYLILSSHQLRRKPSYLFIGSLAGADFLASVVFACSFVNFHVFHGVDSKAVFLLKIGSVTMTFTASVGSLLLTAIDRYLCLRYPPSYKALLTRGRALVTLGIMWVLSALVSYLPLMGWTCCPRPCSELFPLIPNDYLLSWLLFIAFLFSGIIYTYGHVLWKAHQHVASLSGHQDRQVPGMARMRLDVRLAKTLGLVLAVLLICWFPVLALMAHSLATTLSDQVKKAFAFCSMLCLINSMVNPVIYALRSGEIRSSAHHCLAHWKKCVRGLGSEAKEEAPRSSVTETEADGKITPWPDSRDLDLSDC", "assay": "Cannabinoid 2 receptor binding"}, "[3]": {"tested_on": "patients with essential tremor", "assay": "T-CALM: Patient Global Impression of Change (PGIC)", "assay_type": "in vivo, human", "conditions": "for PGIC (rescaled −3 to 3), LS mean (SE) / PGIC, LS mean difference from placebo (95% CI): ANCOVA; for 0 - no change / 1 - minimally improved / 2 - much improved / 3 - very much improved / −1 - minimally worse / −2 - much worse / −3 - very much worse: PGIC", "excerpt": "Treatment success as measured by PGIC was summarized using descriptive statistics."}, "[4]": {"assay": "Crossover bioavailability study: adverse events", "assay_type": "in vivo, human", "conditions": "Any Treatment (Original IR, MR1 or MR2), single 8 mg doses; subjects n (%), N = 15"}, "CYP3A4 and CYP2C9": {"tested_on": "CYP3A4 and CYP2C9", "assay": "In vitro metabolism (liver microsomes, hepatocytes, recombinant CYPs, anti-CYP antibodies)", "assay_type": "in vitro ADME, human", "conditions": "10 μM CX-8998", "description": "Glucuronide conjugates of the oxygenated metabolites are detected in human, monkey, and dog hepatocyte preparations. […] However, the abundance of CYP3A5, CYP2C19, and CYP2D6 in human liver microsomes is low (2%-5%) relative to the primary contributors, CYP3A4 (˜30%) and CYP2C9 (˜20%). […] Information on reproductive and developmental toxicology was obtained in a 28-day pivotal female fertility study in rats and in preliminary embryo-fetal development studies in rats and rabbits."}, "[5]": {"assay": "Cardiovascular telemetry in conscious dogs, oral", "conditions": "dog"}, "cardiovascular function": {"tested_on": "cardiovascular function", "assay": "Cardiovascular telemetry in conscious dogs, oral"}, "[6]": {"conditions": "doses up to 20 μM"}, "Cav3": {"tested_on": "T1, Cav3", "T1 construct": "rows headed: Cav3 potency", "assay": "Cav3 potency and state dependency, summary of Cav3 antagonist pharmacological properties", "assay_type": "cell-based"}, "[7]": {"tested_on": "T2, CYP3A4, CYP2C8, CYP2C9, CYP2D6, CYP1A2, CYP2C19, CYP2B6", "T2 construct": "other: human liver microsomes; other: human microsomes", "assay": "CYP inhibition in human liver microsomes", "assay_type": "in vitro ADME", "conditions": "human, human liver microsomes"}, "[8]": {"tested_on": "T3, major CYP isoforms (CYP1A2, CYP3A4, CYP2C8, CYP2C9, CYP2C19, CYP2D6, CYP2B6)", "T3 construct": "other: human liver microsomes; other: human microsomes", "assay": "CYP inhibition in human liver microsomes", "assay_type": "in vitro ADME", "conditions": "human liver microsomes; human microsomes"}, "[9]": {"tested_on": "patients with essential tremor", "assay": "T-CALM: PK/PD, Cmin versus TETRAS-PS (Hill equation)", "assay_type": "in vivo, human", "description": "Pharmacodynamic variables (Response) evaluated included change from baseline in TETRAS performance subscale, TETRAS activities of daily living, TETRAS total score."}}, "data": [{"smiles": "CC(C)c1ccc(CC(=O)N[C@H](C)c2ccc(OCC(F)(F)F)cn2)cc1", "note": "[CX-8998]", "values": [{"measurement": "AUC", "setting": "[1]", "result": 7.57, "unit": "µM·h"}, {"measurement": "inhibition at 10 µM", "setting": "[2]; 10 μM", "result": 53, "unit": "%"}, {"measurement": "IC50", "setting": "[2]; calculated", "result": 5.34, "unit": "µM"}, {"measurement": "PGIC Improved, percent", "setting": "[3]; Day 15", "result": 66.67, "unit": "%"}, {"measurement": "PGIC No Change, number", "setting": "[3]; Day 15", "result": 11}, {"measurement": "PGIC No Change, percent", "setting": "[3]; Day 15", "result": 28.2, "unit": "%"}, {"measurement": "PGIC Worsened, number", "setting": "[3]; Day 15", "result": 2}, {"measurement": "PGIC Worsened, percent", "setting": "[3]; Day 15", "result": 5.12, "unit": "%"}, {"measurement": "PGIC (rescaled −3 to 3), Mean (SD)", "setting": "[3]; Day 15, N = 39", "result": "1 (1.0)"}, {"measurement": "PGIC (rescaled −3 to 3), Median (minimum, maximum)", "setting": "[3]; Day 15, N = 39", "result": "1 (−2, 3)"}, {"measurement": "PGIC Category 0 No change, patients n (%)", "setting": "[3]; Day 15, N = 39", "result": "11 (28%)"}, {"measurement": "PGIC Category 1 Minimally improved, patients n (%)", "setting": "[3]; Day 15, N = 39", "result": "17 (44%)"}, {"measurement": "PGIC Category 2 Much improved, patients n (%)", "setting": "[3]; Day 15, N = 39", "result": "8 (21%)"}, {"measurement": "PGIC Category 3 Very much improved, patients n (%)", "setting": "[3]; Day 15, N = 39", "result": "1 (3%)"}, {"measurement": "PGIC Category −1 Minimally worse, patients n (%)", "setting": "[3]; Day 15, N = 39", "result": "1 (3%)"}, {"measurement": "PGIC Category −2 Much worse, patients n (%)", "setting": "[3]; Day 15, N = 39", "result": "1 (3%)"}, {"measurement": "PGIC Category −3 Very much worse, patients n (%)", "setting": "[3]; Day 15, N = 39", "result": 0}, {"measurement": "PGIC (rescaled −3 to 3), LS mean (SE)", "setting": "[3]; Day 15", "result": "0.9 (0.17)"}, {"measurement": "PGIC, LS mean difference from placebo (95% CI)", "setting": "[3]; Day 15", "result": "0.7 (0.2, 1.1)"}, {"measurement": "PGIC Improved, number", "setting": "[3]; Day 28", "result": 20}, {"measurement": "PGIC Improved, percent", "setting": "[3]; Day 28", "result": 54.05, "unit": "%"}, {"measurement": "PGIC No Change, number", "setting": "[3]; Day 28", "result": 14}, {"measurement": "PGIC No Change, percent", "setting": "[3]; Day 28", "result": 37.84, "unit": "%"}, {"measurement": "PGIC Worsened, number", "setting": "[3]; Day 28", "result": 3}, {"measurement": "PGIC Worsened, percent", "setting": "[3]; Day 28", "result": 8.11, "unit": "%"}, {"measurement": "PGIC Category 0 No change, patients n (%)", "setting": "[3]; Day 28, N = 39", "result": "14 (36%)"}, {"measurement": "PGIC Category 1 Minimally improved, patients n (%)", "setting": "[3]; Day 28, N = 39", "result": "10 (26%)"}, {"measurement": "PGIC Category 2 Much improved, patients n (%)", "setting": "[3]; Day 28, N = 39", "result": "7 (18%)"}, {"measurement": "PGIC Category 3 Very much improved, patients n (%)", "setting": "[3]; Day 28, N = 39", "result": "3 (8%)"}, {"measurement": "PGIC Category −1 Minimally worse, patients n (%)", "setting": "[3]; Day 28, N = 39", "result": "1 (3%)"}, {"measurement": "PGIC Category −2 Much worse, patients n (%)", "setting": "[3]; Day 28, N = 39", "result": "1 (3%)"}, {"measurement": "PGIC Category −3 Very much worse, patients n (%)", "setting": "[3]; Day 28, N = 39", "result": "1 (3%)"}, {"measurement": "PGIC (rescaled −3 to 3), Mean (SD)", "setting": "[3]; Day 28, N=37", "result": "1 (1.3)"}, {"measurement": "PGIC (rescaled −3 to 3), Median (minimum, maximum)", "setting": "[3]; Day 28, N=37", "result": "1 (−3, 3)"}, {"measurement": "PGIC (rescaled −3 to 3), LS mean (SE)", "setting": "[3]; Day 28", "result": "0.8 (0.19)"}, {"measurement": "PGIC, LS mean difference from placebo (95% CI)", "setting": "[3]; Day 28", "result": "0.4 (−0.1, 0.9)"}, {"measurement": "0 - no change", "setting": "[3]; Day 15", "result": "11 (28%) n (%)"}, {"measurement": "1 - minimally improved", "setting": "[3]; Day 15", "result": "17 (44%) n (%)"}, {"measurement": "2 - much improved", "setting": "[3]; Day 15", "result": "8 (21%) n (%)"}, {"measurement": "3 - very much improved", "setting": "[3]; Day 15", "result": "1 (3%) n (%)"}, {"measurement": "−1 - minimally worse", "setting": "[3]; Day 15", "result": "1 (3%) n (%)"}, {"measurement": "−2 - much worse", "setting": "[3]; Day 15", "result": "1 (3%) n (%)"}, {"measurement": "−3 - very much worse", "setting": "[3]; Day 15", "result": "0 n (%)"}, {"measurement": "0 - no change", "setting": "[3]; Day 28", "result": "14 (36%) n (%)"}, {"measurement": "1 - minimally improved", "setting": "[3]; Day 28", "result": "10 (26%) n (%)"}, {"measurement": "2 - much improved", "setting": "[3]; Day 28", "result": "7 (18%) n (%)"}, {"measurement": "3 - very much improved", "setting": "[3]; Day 28", "result": "3 (8%) n (%)"}, {"measurement": "−1 - minimally worse", "setting": "[3]; Day 28", "result": "1 (3%) n (%)"}, {"measurement": "−2 - much worse", "setting": "[3]; Day 28", "result": "1 (3%) n (%)"}, {"measurement": "−3 - very much worse", "setting": "[3]; Day 28", "result": "1 (3%) n (%)"}, {"measurement": "Adverse Event: Abnormal dreams", "setting": "[4]", "result": "3 (20%)"}, {"measurement": "Adverse Event: Any", "setting": "[4]", "result": "11 (73%)"}, {"measurement": "Adverse Event: Dizziness", "setting": "[4]", "result": "5 (33%)"}, {"measurement": "Adverse Event: Euphoric mood", "setting": "[4]", "result": "2 (13%)"}, {"measurement": "Adverse Event: Feeling abnormal", "setting": "[4]", "result": "4 (27%)"}, {"measurement": "Adverse Event: Headache", "setting": "[4]", "result": "5(33%)"}, {"measurement": "Adverse Event: Nervous System", "setting": "[4]", "result": "10 (67%)"}, {"measurement": "Adverse Event: Paresthesias", "setting": "[4]", "result": "7 (47%)"}, {"measurement": "Adverse Event: Psychiatric", "setting": "[4]", "result": "5 (33%)"}, {"measurement": "Inhibition of metabolism by antihuman CYP3A and CYP2C antibodies", "setting": "CYP3A4 and CYP2C9", "result": "> 90", "unit": "%"}, {"measurement": "NOAEL", "setting": "[5]; in vivo", "result": 20, "unit": "mg/kg"}, {"measurement": "Cmax", "setting": "[5]; plasma, po, 20 mg/kg", "result": "~30", "unit": "µM"}, {"measurement": "Peak change in QT interval", "setting": "cardiovascular function; 20 mg/kg oral", "result": -27, "unit": "ms"}, {"measurement": "Peak change in heart rate", "setting": "cardiovascular function; 20 mg/kg oral", "result": "+28 beats/min"}, {"measurement": "Peak decrease in QT interval", "setting": "cardiovascular function; 300 mg/kg oral", "result": -14, "unit": "ms"}, {"measurement": "Peak increase in heart rate", "setting": "cardiovascular function; 300 mg/kg oral", "result": "+47 beats/min"}, {"measurement": "NOEL", "setting": "cardiovascular function; dog, in vivo", "result": 2, "unit": "mg/kg"}, {"measurement": "Alkaline elution assay result", "setting": "[6]", "result": "negative"}, {"measurement": "IC50", "setting": "Cav3", "result": "70 to 100", "unit": "nM"}, {"measurement": "IC50", "setting": "[7]", "result": "20 to 25", "unit": "µM"}, {"measurement": "IC50", "setting": "[8]", "result": "> 25", "unit": "µM"}, {"measurement": "Emax, change from baseline in TETRAS-PS", "setting": "[9]; Cmin at steady state", "result": "approximately −4.1"}, {"measurement": "EC50", "setting": "[9]; Homo sapiens, TETRAS-PS", "result": "~250", "unit": "nM"}]}]}
